Several values for one entry are separate records, joined by “and”; a condition that tells them apart may be missing. Identical values can stand only once.
Columns and labels:
[1] = test system: Klebsiella pneumoniae, 24 clinical isolates and 1 lab strain; type: cell-based; conditions: average over 25 K. pneumoniae substrains; 37 °C, 16 h, OD 570 nm; growth at 32 μM counted as 64 μM
Protocol: (§1) Minimum inhibitory concentration (MIC, defined as the minimum AMP concentration to prevent bacterial growth) and biofilm data were obtained by UV–vis spectroscopy using a BioTek Epoch 2 microplate reader.
K. pneumoniae substrains were grown overnight using 50 mL plastic conical tubes on a shaker platform at 37 °C. The following day, serial dilutions of the four SPLUNC1 peptides and LL-37 were tested against these 25 substrains of K. pneumoniae using a 96-well plate. […] Following the addition of the peptides at the tested concentrations from serial dilutions to the K. pneumoniae substrains, the plates were incubated at 37 °C for 16 h. Then, visible spectroscopy at λ = 570 nm was performed to determine the bacterial absorption in each well. Those wells with an optical density reading above a threshold value were deemed resistant to the peptide, while those that were below the threshold value were deemed sensitive to the peptide. The threshold value was determined using Gen5 software with the Di lab Growth Inhibition Assay protocol.
Average MICs and standard deviations were calculated by first averaging the absorbances as a function of AMP concentration in all of the bacterial strains from four total data sets. Then, the average MICs were determined from the averaged absorbances. The standard deviations of the MICs were calculated from each of the absorbances that were used to calculate the average. Then, the standard deviations were averaged across substrains for the graph. These procedures were used to obtain an average MIC with standard deviation across all 25 substrains for one peptide, in order to compare peptide efficacy. Typically, many more substrains are used to obtain an average MIC, so this average MIC may change if thousands of substrains are compared.

[2] = test system: Klebsiella pneumoniae biofilms; test: Biofilm growth (crystal violet); type: cell-based
Protocol: as §1
The planktonic samples in the wells were then drained by inversion of the plate. The plate was washed with PBS prior to staining with 125 μL of 0.5% Crystal Violet (in 20% ethanol) for 15 min. Excess stain was removed by washing twice with distilled water. The bacterial remnants on the walls of the wells were analyzed at λ = 620 nm to observe any adhered bacteria. The absorbance values as percent of control (no AMP) do show a tendency of bacterial adherence to the wells. In this work, we will refer to the adhered bacteria after incubation at 37 °C for 16 h as biofilms.

3T3 fibroblast cells = type: cell-based, murine
Protocol: The TetraZ cell counting kit was used to quantify cell proliferation and cell viability. It is based on a water-soluble tetrazolium salt, which, when reduced by cellular dehydrogenases, produces a chromophore. ∼5 × 10^4 immortalized mouse RAW 264.7 macrophages and 3T3 fibroblast cells were incubated in a 96-well plate and allowed to attach for 24 h. AMPs in cell culture medium (DMEM D5796, 10% FBS, 1% P/S) were added to the wells. Cells were incubated at 37 °C for 4 h with the SPLUNC1 peptide derivatives at 8, 16, 32, and 64 μM concentrations. 10 μL of TetraZ was added and incubated for an additional 1.5 h at 37 °C. A Biotek Epoch 2 visible spectrophotometer was used to read the absorbance. The absorbance by the chromophore at λ = 450nm is proportional to the number of live cells (see standard curves, Figures S1 and S2, and additional cell line results (Figures S3 and S4) in the S.I.).

[3] = Circular dichroism secondary structure in Euk33 ULVs; type: physicochemical; conditions: 10 μM peptide, 15 mM PBS pH 7, 37 °C
[4] = test system: eukaryotic cells vs bacteria; test: Therapeutic index (eukaryotic cell kill concentration / bacterial kill concentration); type: cell-based
Protocol: But more important than cytotoxicity is the therapeutic index (TI), which is the concentration at which ≥90% of eukaryotic cells are killed divided by the concentration at which ≥90% of bacteria are killed. For A4-153, this TI value is an estimated ≈ 128 μM/16 μM ≈ 8. TI for A4-157 is an estimated 128 μM/24 μM ≈ 5, and the TI for A4-183 is an estimated 64 μM/20 μM ≈ 3.

CC[C@H](C)[C@H](NC(=O)[C@@H](NC(=O)[C@H](CO)NC(=O)[C@H](CCCCN)NC(=O)[C@@H](NC(=O)[C@H](CCCCN)NC(=O)CNC(=O)[C@H](Cc1c[nH]c2ccccc12)NC(=O)[C@@H](NC(=O)CNC(=O)CNC(=O)[C@@H](NC(=O)[C@H](Cc1c[nH]c2ccccc12)NC(=O)CNC(=O)[C@H](CCCCN)NC(=O)[C@@H](NC(=O)[C@H](CCCCN)NC(=O)[C@H](CCCCN)NC(=O)[C@H](Cc1ccccc1)NC(=O)[C@H](Cc1ccccc1)NC(=O)[C@H](CCCCN)NC(=O)[C@H](CCCCN)NC(=O)[C@@H](N)CC(C)C)C(C)C)C(C)C)C(C)C)C(C)C)C(C)C)C(=O)N[C@@H](CCCCN)C(=O)O (stereo in doubt) [A4-153]
average MIC value [1]: 18 µM
prevention of biofilm formation ([2]; 25 K. pneumoniae substrains, 16 h at 37 °C, crystal violet, 620 nm): generally more efficient than the other peptides at preventing biofilm formation
number of colistin-resistant substrains in which the peptide was the most effective at inhibiting biofilm formation ([2]; out of 11 colistin-resistant substrains, at ∼16 μM): eight
number of colistin-susceptible substrains in which the peptide was the most effective at inhibiting biofilm formation ([2]; out of 13 colistin-susceptible substrains, at ∼16 μM): seven
concentration required for 0% viable cells (estimate) (3T3 fibroblast cells): 128 µM
viable cells compared to the control (3T3 fibroblast cells; 64 µM): ~30%
Random ([3]; Euk33/peptide molar ratio 0:1): 57.7%
α-helix ([3]; Euk33/peptide molar ratio 0:1): 6.4%
β-sheet ([3]; Euk33/peptide molar ratio 0:1): 34.2%
β-turn ([3]; Euk33/peptide molar ratio 0:1): 1.7%
Random ([3]; Euk33/peptide molar ratio 5:1): 66.2%
α-helix ([3]; Euk33/peptide molar ratio 5:1): 9.7%
β-sheet ([3]; Euk33/peptide molar ratio 5:1): 24.1%
β-turn ([3]; Euk33/peptide molar ratio 5:1): 0%
Random ([3]; Euk33/peptide molar ratio 10:1): 64.2%
α-helix ([3]; Euk33/peptide molar ratio 10:1): 12.2%
β-sheet ([3]; Euk33/peptide molar ratio 10:1): 23.6%
β-turn ([3]; Euk33/peptide molar ratio 10:1): 0%
Random ([3]; Euk33/peptide molar ratio 20:1): 60.4%
α-helix ([3]; Euk33/peptide molar ratio 20:1): 14.1%
β-sheet ([3]; Euk33/peptide molar ratio 20:1): 25.5%
β-turn ([3]; Euk33/peptide molar ratio 20:1): 0%
Random ([3]; Euk33/peptide molar ratio 30:1): 57.5%
α-helix ([3]; Euk33/peptide molar ratio 30:1): 16.2% and 16%
β-sheet ([3]; Euk33/peptide molar ratio 30:1): 26.3%
β-turn ([3]; Euk33/peptide molar ratio 30:1): 0%
Random ([3]; Euk33/peptide molar ratio 70:1): 51.3%
α-helix ([3]; Euk33/peptide molar ratio 70:1): 20.5%
β-sheet ([3]; Euk33/peptide molar ratio 70:1): 28.2%
β-turn ([3]; Euk33/peptide molar ratio 70:1): 0%
concentration at which ≥90% of bacteria are killed ([4]; denominator of TI): 16 µM
concentration at which ≥90% of eukaryotic cells are killed (estimated) ([4]; numerator of TI): ≈ 128 μM
